Results as given in patent US20230363383A1, “COMBINATIONS OF CHLOROACETANILIDE HERBICIDES WITH SAFENERS” (UPL DO BRASIL INDUSTRIA E COMERCIO DE INSUMOS AGROPECUARIOS …, priority 2020, published 2023).
Like-named read-outs stand apart in the source and are kept apart here.

What was measured:
Type in all cases: in vivo
wheat crop [1] = settings: seed treatment, average of 4 replications
Source text: (§1) Mode of application for herbicides was spray and they were applied to soil after sowing of untreated seeds or seeds treated with safeners.
as §1

Lolium multiflorum = test: % weed control of Lolium multiflorum, Propisochlor alone or with safener sprayed to soil; parameters: concentration or dose not given beside the values; settings: spray to soil, average of 4 replications; for % Weed Control 7 DAA: 7 days after administration; for % Weed Control 14 DAA: 14 days after administration; for % Weed Control 21 DAA: 21 days after administration; for % Weed Control 28 DAA: 28 days after administration; for % Weed Control 35 DAA: 35 days after administration
Description: (§2) Experiments were carried out to evaluate the phytotoxicity, effect on plant height and effect on number of plants standing after treatments with combinations of one or more Chloroacetanilide herbicides with one or more safeners.
Below table gives summary of the formulation details and application details of Propisochlor and Mefenpyr-diethyl, Isoxadifen-ethyl and Cloquintocet-mexyl that were used in combination with Propisochlor for treatments. Application method was spray and applications were made to soil.
Below table gives summary of the formulation details and application details of Propisochlor and Dichlormid, Fenclorim, Benoxacor, Flurazole and Fluxofenim that were used in combination with Propisochlor for treatments. Application method was spray and applications were made to soil.
Below table gives summary of % weed control shown by untreated check, Propisochlor alone and combination of Propisochlor with Mefenpyr-diethyl, Isoxadifen-ethyl and Cloquintocet-mexyl at different application rates. % weed control was checked for weed Lolium multiflorum.
Below table gives summary of % weed control shown by untreated check, Propisochlor alone and combination of Propisochlor with Dichlormid, Fenclorim, Benoxacor, Flurazole and Fluxofenim at different application rates. % weed control was checked for weed Lolium multiflorum.

wheat crop [2] = settings: spray to soil; for % Phytotoxicity 7 DAA: 7 days after administration; for % Phytotoxicity 7 DAA / % Phytotoxicity 14 DAA / % Phytotoxicity 21 DAA / % Phytotoxicity 28 DAA / % Phytotoxicity 35 DAA: average of 4 replications; for % Phytotoxicity 14 DAA: 14 days after administration; for % Phytotoxicity 21 DAA: 21 days after administration; for % Phytotoxicity 28 DAA: 28 days after administration; for % Phytotoxicity 35 DAA: 35 days after administration; for Plants Standing: untreated check 8.0 (Table 5) / 8.3 (Table 6)
Description: as §2
(§3) Application method was spray and applications were made to soil.
as §3

In the case of N#Cc1nn(-c2c(Cl)cc(C(F)(F)F)cc2Cl)c(N)c1[S+]([O-])C(F)(F)F (stereo not shown) [Treatment 1b], the “Plant height 15 DAA” value (wheat crop [1]; Table 11, wheat crop, 15 DAA) is reported as 10.8, the “Standing Plants 15 DAA” value (wheat crop [1]; Table 11, wheat crop, 15 DAA) is reported as 22.5 and the “Plant height 29 DAA” value (wheat crop [1]; Table 11, wheat crop, 29 DAA) is reported as 10.8. The “Standing Plants 29 DAA” value (wheat crop [1]; Table 11, wheat crop, 29 DAA) was 33.8, the “% Phytotoxicity 7 DAA” value (wheat crop [1]; wheat crop, Propisochlor sprayed to soil after sowing, 7 DAA) was 0% and the “% Phytotoxicity 14 DAA” value (wheat crop [1]; wheat crop, Propisochlor sprayed to soil after sowing, 14 DAA) was 0%. For the same compound, the “% Phytotoxicity 21 DAA” value (wheat crop [1]; wheat crop, Propisochlor sprayed to soil after sowing, 21 DAA) was 0%, the “% Phytotoxicity 28 DAA” value (wheat crop [1]; wheat crop, Propisochlor sprayed to soil after sowing, 28 DAA) was 0% and the “% Phytotoxicity 35 DAA” value (wheat crop [1]; wheat crop, Propisochlor sprayed to soil after sowing, 35 DAA) was 0%.
In the case of CCc1cccc(C)c1N(COC(C)C)C(=O)CCl [Treatment 2a], the “% Weed Control 7 DAA” value (Lolium multiflorum) is reported as 100%, the “% Weed Control 14 DAA” value (Lolium multiflorum) is reported as 100% and the “% Weed Control 21 DAA” value (Lolium multiflorum) is reported as 100%. For the same compound, the “% Weed Control 28 DAA” value (Lolium multiflorum) was 100%, the “% Weed Control 35 DAA” value (Lolium multiflorum) was 100% and the “% Phytotoxicity 7 DAA” value (wheat crop [2]) was 98.0%. The “% Phytotoxicity 14 DAA” value (wheat crop [2]) was 99.0%, the “% Phytotoxicity 21 DAA” value (wheat crop [2]) was 99.5% and the “% Phytotoxicity 28 DAA” value (wheat crop [2]) was 99.5%. The “% Phytotoxicity 35 DAA” value (wheat crop [2]) was 99.0% and the “Plants Standing” value (wheat crop [2]) was 0.5.
In the case of N#Cc1nn(-c2c(Cl)cc(C(F)(F)F)cc2Cl)c(N)c1[S+]([O-])C(F)(F)F (stereo not shown) [Treatment 9b], the “Plant height 15 DAA” value (wheat crop [1]; Table 12, 15 DAA) is reported as 23.3, the “Standing Plants 15 DAA” value (wheat crop [1]; Table 12, 15 DAA) is reported as 10.8 and the “Plant height 29 DAA” value (wheat crop [1]; Table 12, 29 DAA) is reported as 34.3. For the same compound, the “Standing Plants 29 DAA” value (wheat crop [1]; Table 12, 29 DAA) was 10.8, the “% Phytotoxicity 8 DAA” value (wheat crop [1]; wheat crop, Propisochlor sprayed to soil after sowing, 8 DAA) was 0% and the “% Phytotoxicity 15 DAA” value (wheat crop [1]; wheat crop, Propisochlor sprayed to soil after sowing, 15 DAA) was 0%. The “% Phytotoxicity 22 DAA” value (wheat crop [1]; wheat crop, Propisochlor sprayed to soil after sowing, 22 DAA) was 0%, the “% Phytotoxicity 29 DAA” value (wheat crop [1]; wheat crop, Propisochlor sprayed to soil after sowing, 29 DAA) was 0% and the “% Phytotoxicity 36 DAA” value (wheat crop [1]; wheat crop, Propisochlor sprayed to soil after sowing, 36 DAA) was 0%.
CCc1cccc(C)c1N(COC(C)C)C(=O)CCl [Treatment 10a] was tested, and the “% Weed Control 7 DAA” value (Lolium multiflorum) was 100.0%, the “% Weed Control 14 DAA” value (Lolium multiflorum) was 100.0% and the “% Weed Control 21 DAA” value (Lolium multiflorum) was 100.0%. For the same compound, the “% Weed Control 28 DAA” value (Lolium multiflorum) was 99.3%, the “% Weed Control 35 DAA” value (Lolium multiflorum) was 99.0% and the “% Phytotoxicity 7 DAA” value (wheat crop [2]) was 99.5%. The “% Phytotoxicity 14 DAA” value (wheat crop [2]) was 100%, the “% Phytotoxicity 21 DAA” value (wheat crop [2]) was 100% and the “% Phytotoxicity 28 DAA” value (wheat crop [2]) was 100%. The “% Phytotoxicity 35 DAA” value (wheat crop [2]) was 100% and the “Plants Standing” value (wheat crop [2]) was 0.0.
